Measured values as given in patent publication US9340590B2 (priority 2011, dated 2016).
pIC50: −log10 of the molar value. Positions of bridges follow the written chain, without caps; N, C: chain ends. Non-standard residues stand in square brackets, D forms with d. Residues, ends and D or L forms follow the SMILES beside them. NMeW = CN[C@@H](Cc1c[nH]c2ccccc12)C(=O)O; NMeF = CN[C@@H](Cc1ccccc1)C(=O)O; Cha = N[C@@H](CC1CCCCC1)C(=O)O; Phg = N[C@H](C(=O)O)c1ccccc1

Legend:
Experiment in all cases: cell-based
hNav1.7 = hNav1.7 (Homo sapiens, UniProt Q15858); type: cell-based; conditions: Table 25; IonWorks Quattro, use; […]; read-out: IWQ Use Nav1.7
hNav1.5 = hNav1.5 (Homo sapiens, UniProt Q14524); conditions: Table 25; IonWorks Quattro, use; […]; read-out: IWQ Use Nav1.5
hNav1.3 = hNav1.3 (Homo sapiens, UniProt Q9NY46); conditions: Table 25; IonWorks Quattro, use; […]; read-out: IWQ Use Nav1.3

Chain of hNav1.7 (Q15858 whole entry, looked up): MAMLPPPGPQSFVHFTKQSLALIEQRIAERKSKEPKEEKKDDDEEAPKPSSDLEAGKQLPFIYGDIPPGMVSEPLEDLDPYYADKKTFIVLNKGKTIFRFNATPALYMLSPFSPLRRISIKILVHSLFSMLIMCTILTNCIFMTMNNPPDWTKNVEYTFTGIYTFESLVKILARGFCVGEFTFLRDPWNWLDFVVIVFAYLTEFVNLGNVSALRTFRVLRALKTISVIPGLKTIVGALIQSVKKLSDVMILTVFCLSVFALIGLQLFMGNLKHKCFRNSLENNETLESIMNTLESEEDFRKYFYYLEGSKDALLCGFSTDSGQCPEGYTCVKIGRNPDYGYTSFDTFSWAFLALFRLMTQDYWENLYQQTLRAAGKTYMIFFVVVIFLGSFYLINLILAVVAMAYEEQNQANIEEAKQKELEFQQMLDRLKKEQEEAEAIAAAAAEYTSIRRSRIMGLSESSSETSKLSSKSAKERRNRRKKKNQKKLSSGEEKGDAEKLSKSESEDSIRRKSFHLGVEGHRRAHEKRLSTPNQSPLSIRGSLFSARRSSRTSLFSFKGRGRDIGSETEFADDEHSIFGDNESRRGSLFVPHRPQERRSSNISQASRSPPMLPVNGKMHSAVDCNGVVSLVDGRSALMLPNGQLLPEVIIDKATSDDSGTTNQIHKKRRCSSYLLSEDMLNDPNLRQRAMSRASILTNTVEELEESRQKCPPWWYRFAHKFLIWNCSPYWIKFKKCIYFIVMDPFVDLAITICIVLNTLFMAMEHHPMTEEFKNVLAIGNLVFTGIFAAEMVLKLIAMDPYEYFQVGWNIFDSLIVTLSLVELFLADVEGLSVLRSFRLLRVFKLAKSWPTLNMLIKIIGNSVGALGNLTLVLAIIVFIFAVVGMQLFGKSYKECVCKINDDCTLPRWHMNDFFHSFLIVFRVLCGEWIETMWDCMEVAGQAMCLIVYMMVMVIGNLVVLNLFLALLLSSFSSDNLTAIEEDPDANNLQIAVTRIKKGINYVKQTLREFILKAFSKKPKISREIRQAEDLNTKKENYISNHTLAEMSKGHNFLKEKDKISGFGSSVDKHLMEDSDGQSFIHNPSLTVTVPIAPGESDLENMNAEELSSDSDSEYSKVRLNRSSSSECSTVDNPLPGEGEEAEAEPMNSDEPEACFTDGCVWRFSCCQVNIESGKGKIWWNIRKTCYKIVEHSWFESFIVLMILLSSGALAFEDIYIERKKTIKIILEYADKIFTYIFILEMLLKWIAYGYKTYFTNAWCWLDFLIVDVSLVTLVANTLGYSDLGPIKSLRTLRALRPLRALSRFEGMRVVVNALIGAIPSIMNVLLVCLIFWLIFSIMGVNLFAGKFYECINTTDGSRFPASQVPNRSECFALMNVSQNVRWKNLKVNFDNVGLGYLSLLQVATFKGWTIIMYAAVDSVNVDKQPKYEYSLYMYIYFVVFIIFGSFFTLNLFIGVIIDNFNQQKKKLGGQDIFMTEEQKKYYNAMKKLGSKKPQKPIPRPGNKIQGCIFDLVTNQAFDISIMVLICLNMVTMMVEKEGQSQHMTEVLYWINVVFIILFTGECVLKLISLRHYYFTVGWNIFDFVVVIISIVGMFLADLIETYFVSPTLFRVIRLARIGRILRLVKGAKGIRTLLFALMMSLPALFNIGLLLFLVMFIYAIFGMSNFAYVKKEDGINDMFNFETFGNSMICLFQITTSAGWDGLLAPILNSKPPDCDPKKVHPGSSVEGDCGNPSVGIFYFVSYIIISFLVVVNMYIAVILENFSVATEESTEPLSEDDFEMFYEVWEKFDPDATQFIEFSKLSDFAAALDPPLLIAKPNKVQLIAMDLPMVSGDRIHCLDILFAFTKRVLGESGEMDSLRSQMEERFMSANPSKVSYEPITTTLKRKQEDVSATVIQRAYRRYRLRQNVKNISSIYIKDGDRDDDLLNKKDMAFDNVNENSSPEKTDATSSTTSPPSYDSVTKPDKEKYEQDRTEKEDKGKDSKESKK
Chain of hNav1.5 (Q14524 whole entry, looked up): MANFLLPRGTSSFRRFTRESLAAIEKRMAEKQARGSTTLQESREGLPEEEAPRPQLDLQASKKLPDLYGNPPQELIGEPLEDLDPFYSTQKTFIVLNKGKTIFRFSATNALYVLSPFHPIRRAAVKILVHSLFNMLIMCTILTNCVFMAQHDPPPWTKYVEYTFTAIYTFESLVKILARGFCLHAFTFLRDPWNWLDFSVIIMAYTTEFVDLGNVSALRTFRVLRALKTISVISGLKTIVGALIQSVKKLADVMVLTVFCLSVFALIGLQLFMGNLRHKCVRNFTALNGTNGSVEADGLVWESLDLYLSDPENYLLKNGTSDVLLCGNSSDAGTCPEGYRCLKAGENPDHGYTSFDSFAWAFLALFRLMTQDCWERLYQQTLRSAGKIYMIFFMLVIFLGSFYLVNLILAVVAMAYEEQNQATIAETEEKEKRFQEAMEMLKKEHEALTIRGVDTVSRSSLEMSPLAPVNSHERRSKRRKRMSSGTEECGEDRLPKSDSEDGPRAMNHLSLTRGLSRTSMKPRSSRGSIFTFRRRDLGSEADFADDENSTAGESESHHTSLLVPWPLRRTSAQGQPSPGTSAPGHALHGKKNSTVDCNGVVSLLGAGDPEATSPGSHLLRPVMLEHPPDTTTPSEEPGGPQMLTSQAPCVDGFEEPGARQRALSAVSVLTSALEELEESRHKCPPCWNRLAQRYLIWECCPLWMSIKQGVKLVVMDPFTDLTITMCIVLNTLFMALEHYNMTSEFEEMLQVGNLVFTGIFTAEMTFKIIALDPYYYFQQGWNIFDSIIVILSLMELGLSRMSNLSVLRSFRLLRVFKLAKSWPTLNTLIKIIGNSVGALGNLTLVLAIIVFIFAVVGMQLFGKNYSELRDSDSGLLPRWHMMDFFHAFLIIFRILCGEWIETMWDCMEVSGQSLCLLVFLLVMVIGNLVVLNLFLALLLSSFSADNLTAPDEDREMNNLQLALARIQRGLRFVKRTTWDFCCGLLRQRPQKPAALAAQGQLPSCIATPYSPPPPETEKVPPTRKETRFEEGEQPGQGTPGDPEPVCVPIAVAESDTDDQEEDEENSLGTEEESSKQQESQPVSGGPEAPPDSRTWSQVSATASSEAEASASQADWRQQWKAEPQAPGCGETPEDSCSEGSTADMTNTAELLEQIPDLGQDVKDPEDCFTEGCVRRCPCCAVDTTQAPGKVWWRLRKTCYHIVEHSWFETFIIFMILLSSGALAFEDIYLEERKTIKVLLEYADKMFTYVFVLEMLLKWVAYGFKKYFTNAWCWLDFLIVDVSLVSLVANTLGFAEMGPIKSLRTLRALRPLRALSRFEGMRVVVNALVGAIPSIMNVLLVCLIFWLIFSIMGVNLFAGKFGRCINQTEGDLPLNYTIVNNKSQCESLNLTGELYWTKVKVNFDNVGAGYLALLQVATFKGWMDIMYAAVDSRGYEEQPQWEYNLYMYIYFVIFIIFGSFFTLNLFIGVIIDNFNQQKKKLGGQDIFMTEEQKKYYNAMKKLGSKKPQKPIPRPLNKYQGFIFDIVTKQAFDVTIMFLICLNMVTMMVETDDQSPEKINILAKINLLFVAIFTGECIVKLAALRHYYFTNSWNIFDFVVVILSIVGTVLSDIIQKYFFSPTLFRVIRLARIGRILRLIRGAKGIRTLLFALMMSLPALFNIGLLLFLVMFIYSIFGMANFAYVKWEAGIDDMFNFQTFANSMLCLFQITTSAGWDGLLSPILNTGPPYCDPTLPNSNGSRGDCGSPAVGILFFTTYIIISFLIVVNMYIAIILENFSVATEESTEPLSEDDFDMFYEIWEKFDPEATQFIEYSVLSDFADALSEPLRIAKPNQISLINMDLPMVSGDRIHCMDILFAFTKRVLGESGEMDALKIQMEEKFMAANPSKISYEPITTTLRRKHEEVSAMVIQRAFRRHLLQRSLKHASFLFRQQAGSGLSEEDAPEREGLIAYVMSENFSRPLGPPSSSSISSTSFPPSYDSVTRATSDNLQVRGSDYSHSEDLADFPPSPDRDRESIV

SMILES	pIC50 (hNav1.7)	pIC50 (hNav1.5)	pIC50 (hNav1.3)
CC[C@H](C)[C@@H]1NC(=O)[C@@H]2CSSC[C@@H]3NC(=O)[C@H](C(C)C)NC(=O)[C@H](CC(C)C)NC(=O)[C@H](CC(N)=O)NC(=O)[C@@H]4CCCN4C(=O)[C@H](CCCNC(=N)N)NC(=O)[C@H](CSSC[C@H](NC(=O)[C@@H](N)CC(=O)O)C(=O)N[C@@H](CC(C)C)C(=O)NCC(=O)N[C@@H](Cc4ccccc4)C(=O)N[C@@H](CCSC)C(=O)N[C@@H](CCCNC(=N)N)C(=O)N[C@@H](CCCCN)C(=O)N2)NC(=O)[C@H](CSSC[C@@H](C(=O)N[C@@H](CCCCN)C(=O)N(C)[C@@H](Cc2ccccc2)C(=O)N[C@H](C(=O)N[C@@H](Cc2ccccc2)C(N)=O)C(C)C)NC(=O)[C@H](Cc2c[nH]c4ccccc24)NC(=O)[C@H](CCCCN)NC(=O)[C@H](Cc2c[nH]cn2)NC(=O)[C@H]([C@@H](C)O)NC(=O)[C@H](CCCNC(=N)N)NC(=O)[C@H](CO)NC3=O)NC(=O)[C@H](CCCCN)NC(=O)[C@H](CC(=O)O)NC(=O)[C@H](CC(N)=O)NC(=O)[C@H](CC(=O)O)NC(=O)[C@@H]2CCCN2C1=O [compound 370] (H-DCLGFMRKCIPDNDKCCRPNLVCSRTHKWCK[NMeF]VF-NH2; disulfide 2-17, 9-23, 16-30)	< 5.30	< 5.30	< 5.30
CC[C@H](C)[C@@H]1NC(=O)[C@@H]2CSSC[C@@H]3NC(=O)[C@H](C(C)C)NC(=O)[C@H](CC(C)C)NC(=O)[C@H](CC(N)=O)NC(=O)[C@@H]4CCCN4C(=O)[C@H](CCCNC(=N)N)NC(=O)[C@H](CSSC[C@H](NC(=O)[C@@H](N)CC(=O)O)C(=O)N[C@@H](CC(C)C)C(=O)NCC(=O)N[C@@H](Cc4ccccc4)C(=O)N[C@@H](CCSC)C(=O)N[C@@H](CCCNC(=N)N)C(=O)N[C@@H](CCCCN)C(=O)N2)NC(=O)[C@H](CSSC[C@@H](C(=O)N[C@@H](CCCCN)C(=O)N(C)[C@@H](Cc2c[nH]c4ccccc24)C(=O)N[C@H](C(=O)N[C@@H](Cc2ccccc2)C(N)=O)C(C)C)NC(=O)[C@H](Cc2c[nH]c4ccccc24)NC(=O)[C@H](CCCCN)NC(=O)[C@H](Cc2c[nH]cn2)NC(=O)[C@H]([C@@H](C)O)NC(=O)[C@H](CCCNC(=N)N)NC(=O)[C@H](CO)NC3=O)NC(=O)[C@H](CCCCN)NC(=O)[C@H](CC(=O)O)NC(=O)[C@H](CC(N)=O)NC(=O)[C@H](CC(=O)O)NC(=O)[C@@H]2CCCN2C1=O [compound 371] (H-DCLGFMRKCIPDNDKCCRPNLVCSRTHKWCK[NMeW]VF-NH2; disulfide 2-17, 9-23, 16-30)	5.31	< 5.30	< 5.30
CC[C@H](C)[C@@H]1NC(=O)[C@@H]2CSSC[C@@H]3NC(=O)[C@H](C(C)C)NC(=O)[C@H](CC(C)C)NC(=O)[C@H](CC(N)=O)NC(=O)[C@@H]4CCCN4C(=O)[C@H](CCCNC(=N)N)NC(=O)[C@H](CSSC[C@H](NC(=O)[C@@H](N)CC(=O)O)C(=O)N[C@@H](CC(C)C)C(=O)NCC(=O)N[C@@H](Cc4ccccc4)C(=O)N[C@@H](CCSC)C(=O)N[C@@H](CCCNC(=N)N)C(=O)N[C@@H](CCCCN)C(=O)N2)NC(=O)[C@H](CSSC[C@@H](C(=O)N[C@@H](CCCCN)C(=O)N[C@H](C(=O)N[C@H](C(=O)N[C@@H](Cc2ccccc2)C(N)=O)C(C)C)C(C)C)NC(=O)[C@H](Cc2c[nH]c4ccccc24)NC(=O)[C@H](CCCCN)NC(=O)[C@H](Cc2c[nH]cn2)NC(=O)[C@H]([C@@H](C)O)NC(=O)[C@H](CCCNC(=N)N)NC(=O)[C@H](CO)NC3=O)NC(=O)[C@H](CCCCN)NC(=O)[C@H](CC(=O)O)NC(=O)[C@H](CC(N)=O)NC(=O)[C@H](CC(=O)O)NC(=O)[C@@H]2CCCN2C1=O [compound 372] (H-DCLGFMRKCIPDNDKCCRPNLVCSRTHKWCKVVF-NH2; disulfide 2-17, 9-23, 16-30)	6.82	4.83	7.10
CC[C@H](C)[C@@H]1NC(=O)[C@@H]2CSSC[C@@H]3NC(=O)[C@H](C(C)C)NC(=O)[C@H](CC(C)C)NC(=O)[C@H](CC(N)=O)NC(=O)[C@@H]4CCCN4C(=O)[C@H](CCCNC(=N)N)NC(=O)[C@H](CSSC[C@H](NC(=O)[C@@H](N)CC(=O)O)C(=O)N[C@@H](CC(C)C)C(=O)NCC(=O)N[C@@H](Cc4ccccc4)C(=O)N[C@@H](CCSC)C(=O)N[C@@H](CCCNC(=N)N)C(=O)N[C@@H](CCCCN)C(=O)N2)NC(=O)[C@H](CSSC[C@@H](C(=O)N[C@@H](CCCCN)C(=O)N[C@@H](CC(C)C)C(=O)N[C@H](C(=O)N[C@@H](Cc2ccccc2)C(N)=O)C(C)C)NC(=O)[C@H](Cc2c[nH]c4ccccc24)NC(=O)[C@H](CCCCN)NC(=O)[C@H](Cc2c[nH]cn2)NC(=O)[C@H]([C@@H](C)O)NC(=O)[C@H](CCCNC(=N)N)NC(=O)[C@H](CO)NC3=O)NC(=O)[C@H](CCCCN)NC(=O)[C@H](CC(=O)O)NC(=O)[C@H](CC(N)=O)NC(=O)[C@H](CC(=O)O)NC(=O)[C@@H]2CCCN2C1=O [compound 373] (H-DCLGFMRKCIPDNDKCCRPNLVCSRTHKWCKLVF-NH2; disulfide 2-17, 9-23, 16-30)	6.92	5.05	7.10
CC[C@H](C)[C@@H]1NC(=O)[C@@H]2CSSC[C@@H]3NC(=O)[C@H](C(C)C)NC(=O)[C@H](CC(C)C)NC(=O)[C@H](CC(N)=O)NC(=O)[C@@H]4CCCN4C(=O)[C@H](CCCNC(=N)N)NC(=O)[C@H](CSSC[C@H](NC(=O)[C@@H](N)CC(=O)O)C(=O)N[C@@H](CC(C)C)C(=O)NCC(=O)N[C@@H](Cc4ccccc4)C(=O)N[C@@H](CCSC)C(=O)N[C@@H](CCCNC(=N)N)C(=O)N[C@@H](CCCCN)C(=O)N2)NC(=O)[C@H](CSSC[C@@H](C(=O)N[C@@H](CCCCN)C(=O)N[C@H](C(=O)N[C@H](C(=O)N[C@@H](Cc2ccccc2)C(N)=O)C(C)C)c2ccccc2)NC(=O)[C@H](Cc2c[nH]c4ccccc24)NC(=O)[C@H](CCCCN)NC(=O)[C@H](Cc2c[nH]cn2)NC(=O)[C@H]([C@@H](C)O)NC(=O)[C@H](CCCNC(=N)N)NC(=O)[C@H](CO)NC3=O)NC(=O)[C@H](CCCCN)NC(=O)[C@H](CC(=O)O)NC(=O)[C@H](CC(N)=O)NC(=O)[C@H](CC(=O)O)NC(=O)[C@@H]2CCCN2C1=O [compound 374] (H-DCLGFMRKCIPDNDKCCRPNLVCSRTHKWCK[Phg]VF-NH2; disulfide 2-17, 9-23, 16-30)	6.85	5.15	7.00
CC[C@H](C)[C@@H]1NC(=O)[C@@H]2CSSC[C@@H]3NC(=O)[C@H](C(C)C)NC(=O)[C@H](CC(C)C)NC(=O)[C@H](CC(N)=O)NC(=O)[C@@H]4CCCN4C(=O)[C@H](CCCNC(=N)N)NC(=O)[C@H](CSSC[C@H](NC(=O)[C@@H](N)CC(=O)O)C(=O)N[C@@H](CC(C)C)C(=O)NCC(=O)N[C@@H](Cc4ccccc4)C(=O)N[C@@H](CCSC)C(=O)N[C@@H](CCCNC(=N)N)C(=O)N[C@@H](CCCCN)C(=O)N2)NC(=O)[C@H](CSSC[C@@H](C(=O)N[C@@H](CCCCN)C(=O)N[C@@H](CC2CCCCC2)C(=O)N[C@H](C(=O)N[C@@H](Cc2ccccc2)C(N)=O)C(C)C)NC(=O)[C@H](Cc2c[nH]c4ccccc24)NC(=O)[C@H](CCCCN)NC(=O)[C@H](Cc2c[nH]cn2)NC(=O)[C@H]([C@@H](C)O)NC(=O)[C@H](CCCNC(=N)N)NC(=O)[C@H](CO)NC3=O)NC(=O)[C@H](CCCCN)NC(=O)[C@H](CC(=O)O)NC(=O)[C@H](CC(N)=O)NC(=O)[C@H](CC(=O)O)NC(=O)[C@@H]2CCCN2C1=O [compound 375] (H-DCLGFMRKCIPDNDKCCRPNLVCSRTHKWCK[Cha]VF-NH2; disulfide 2-17, 9-23, 16-30)	7.30	5.05	7.70
CC[C@H](C)[C@@H]1NC(=O)[C@@H]2CSSC[C@@H]3NC(=O)[C@H](C(C)C)NC(=O)[C@H](CC(C)C)NC(=O)[C@H](CC(N)=O)NC(=O)[C@@H]4CCCN4C(=O)[C@H](CCCNC(=N)N)NC(=O)[C@H](CSSC[C@H](NC(=O)[C@@H](N)CC(=O)O)C(=O)N[C@@H](CC(C)C)C(=O)NCC(=O)N[C@@H](Cc4ccccc4)C(=O)N[C@@H](CCSC)C(=O)N[C@@H](CCCNC(=N)N)C(=O)N[C@@H](CCCCN)C(=O)N2)NC(=O)[C@H](CSSC[C@@H](C(=O)N[C@@H](CCCCN)C(=O)N[C@@H](Cc2ccccc2)C(=O)N[C@H](C(=O)N[C@@H](Cc2ccccc2)C(N)=O)C(C)C)NC(=O)[C@H](Cc2c[nH]c4ccccc24)NC(=O)[C@H](CCCCN)NC(=O)[C@H](Cc2c[nH]cn2)NC(=O)[C@H]([C@@H](C)O)NC(=O)[C@H](CCCNC(=N)N)NC(=O)[C@H](CO)NC3=O)NC(=O)[C@H](CCCCN)NC(=O)[C@H](CC(=O)O)NC(=O)[C@H](CC(N)=O)NC(=O)[C@H](CC(=O)O)NC(=O)[C@@H]2CCCN2C1=O [compound 377] (H-DCLGFMRKCIPDNDKCCRPNLVCSRTHKWCKFVF-NH2; disulfide 2-17, 9-23, 16-30)	7.30	5.16	7.30
CC[C@H](C)[C@@H]1NC(=O)[C@@H]2CSSC[C@@H]3NC(=O)[C@H](C(C)C)NC(=O)[C@H](CC(C)C)NC(=O)[C@H](CC(N)=O)NC(=O)[C@@H]4CCCN4C(=O)[C@H](CCCNC(=N)N)NC(=O)[C@H](CSSC[C@H](NC(=O)[C@@H](N)CC(=O)O)C(=O)N[C@@H](CC(C)C)C(=O)NCC(=O)N[C@@H](Cc4ccccc4)C(=O)N[C@@H](CCSC)C(=O)N[C@@H](CCCNC(=N)N)C(=O)N[C@@H](CCCCN)C(=O)N2)NC(=O)[C@H](CSSC[C@@H](C(=O)N[C@@H](CCCCN)C(=O)NCC(=O)N[C@H](C(=O)N[C@@H](Cc2ccccc2)C(N)=O)C(C)C)NC(=O)[C@H](Cc2c[nH]c4ccccc24)NC(=O)[C@H](CCCCN)NC(=O)[C@H](Cc2c[nH]cn2)NC(=O)[C@H]([C@@H](C)O)NC(=O)[C@H](CCCNC(=N)N)NC(=O)[C@H](CO)NC3=O)NC(=O)[C@H](CCCCN)NC(=O)[C@H](CC(=O)O)NC(=O)[C@H](CC(N)=O)NC(=O)[C@H](CC(=O)O)NC(=O)[C@@H]2CCCN2C1=O [compound 378] (H-DCLGFMRKCIPDNDKCCRPNLVCSRTHKWCKGVF-NH2; disulfide 2-17, 9-23, 16-30)	6.15	4.95	6.21
